# Reference: US20230017045A1, “PYRIDINE AND PYRIMIDINE CARBOXYLATE HERBICIDES AND METHODS OF USE THEREOF” (Dow AgroSciences LLC, priority 2017, published 2023)
# Tested on: test plant species
# Test: Post-emergent herbicidal activity test (greenhouse, foliar spray, visual growth reduction)
# Type: in vivo
# Settings: post-emergence, 336 h, ALOMY: blackgrass (Alopecurus myosuroides), 140 g ai/ha, 14 days after application, read-out: Visual Growth Reduction (%) 14 Days After Application, ALOMY
# Method: Post-emergent Test: Seeds or nutlets of the desired test plant species were planted in Sun Gro Metro-Mix® 360 planting mixture, which typically has a pH of 6.0 to 6.8 and an organic matter content of about 30 percent, in plastic pots with a surface area of 64 square centimeters. In some aspects, to ensure good germination and healthy plants, a fungicide treatment and/or other chemical or physical treatment was applied. The plants were grown for 7-21 d in a greenhouse with an approximate 15 h photoperiod which was maintained at 23-29° C. during the day and 22-28° C. during the night. Nutrients and water were added on a regular basis and supplemental lighting was provided with overhead metal halide 1000-Watt lamps as necessary. Plants were used for testing when they reached the first or second true leaf stage. A weighed amount, determined by the highest rate to be tested, of each test compound was placed in a 25 mL glass vial and was dissolved in 4 mL of a 97:3 v/v mixture of acetone and DMSO to obtain concentrated stock solutions. […] The concentrated stock solutions obtained were diluted with 20 mL of an aqueous mixture containing acetone, water, isopropyl alcohol, DMSO, […] crop oil concentrate, and X-77 surfactant in a 48.5:39:10:1.5:1.0:0.02 v/v ratio to obtain spray solutions containing the application rate. Compound requirements are based upon a 12 mL application volume at a rate of 187 liters per hectare (L/ha). Formulated compounds were applied to the plant material with an overhead Mandel track sprayer equipped with […] nozzles calibrated to deliver 187 L/ha over an application area of 0.64 square meters at a spray height of 18 inches (43 cm) above the average plant canopy height. Control plants were sprayed in the same manner with the solvent blank. The treated plants and control plants were placed in a greenhouse as described above and watered by subirrigation to prevent wash-off of the test compounds. After 14 d, the condition of the test plants as compared with that of the nontreated and control plants was determined visually and scored on a scale of 0 to 100 percent where 0 corresponds to no injury and 100 corresponds to complete control. In the reporting of the results, Table A: Percent Growth Reduction Conversion Table was used.
row,Structure (SMILES),pest or weed control at 140 g/ha
1,"COC(=O)c1nc(-c2cc3c(cc2Cl)OC(F)(F)O3)ccc1Cl [F124, Methyl 3-chloro-6-(6-chloro-2,2-difluorobenzo[d] [1,3]dioxol-5-yl)picolinate]",45 to 59%

# Same assay, conditions: post-emergence, 336 h, AMARE: redroot pigweed (Amaranthus retroflexus), 140 g ai/ha, 14 days after application, read-out: Visual Growth Reduction (%) 14 Days After Application, AMARE
row,Structure (SMILES),pest or weed control at 140 g/ha
1,"COC(=O)c1nc(-c2cc3c(cc2Cl)OC(F)(F)O3)ccc1Cl [F124, Methyl 3-chloro-6-(6-chloro-2,2-difluorobenzo[d] [1,3]dioxol-5-yl)picolinate]",75 to 84%

# Same assay, conditions: post-emergence, 336 h, AVEFA: wild oat (Avena fatua), 140 g ai/ha, 14 days after application, read-out: Visual Growth Reduction (%) 14 Days After Application, AVEFA
row,Structure (SMILES),pest or weed control at 140 g/ha
1,"COC(=O)c1nc(-c2cc3c(cc2Cl)OC(F)(F)O3)ccc1Cl [F124, Methyl 3-chloro-6-(6-chloro-2,2-difluorobenzo[d] [1,3]dioxol-5-yl)picolinate]",30 to 44%

# Same assay, conditions: post-emergence, 336 h, CHEAL: lambsquarters (Chenopodium album), 140 g ai/ha, 14 days after application, read-out: Visual Growth Reduction (%) 14 Days After Application, CHEAL
row,Structure (SMILES),pest or weed control at 140 g/ha
1,"COC(=O)c1nc(-c2cc3c(cc2Cl)OC(F)(F)O3)ccc1Cl [F124, Methyl 3-chloro-6-(6-chloro-2,2-difluorobenzo[d] [1,3]dioxol-5-yl)picolinate]",85 to 94%

# Same assay, conditions: post-emergence, 336 h, CIRAR: canada thistle (Cirsium arvense), 140 g ai/ha, 14 days after application, read-out: Visual Growth Reduction (%) 14 Days After Application, CIRAR
row,Structure (SMILES),pest or weed control at 140 g/ha
1,"COC(=O)c1nc(-c2cc3c(cc2Cl)OC(F)(F)O3)ccc1Cl [F124, Methyl 3-chloro-6-(6-chloro-2,2-difluorobenzo[d] [1,3]dioxol-5-yl)picolinate]",75 to 84%

# Same assay, conditions: post-emergence, 336 h, CYPES: yellow nutsedge (Cyperus esculentus), 140 g ai/ha, 14 days after application, read-out: Visual Growth Reduction (%) 14 Days After Application, CYPES
row,Structure (SMILES),pest or weed control at 140 g/ha
1,"COC(=O)c1nc(-c2cc3c(cc2Cl)OC(F)(F)O3)ccc1Cl [F124, Methyl 3-chloro-6-(6-chloro-2,2-difluorobenzo[d] [1,3]dioxol-5-yl)picolinate]",0 to 29%

# Same assay, conditions: post-emergence, 336 h, DIGSA: crabgrass (Digitaria sanguinalis), 140 g ai/ha, 14 days after application, read-out: Visual Growth Reduction (%) 14 Days After Application, DIGSA
row,Structure (SMILES),pest or weed control at 140 g/ha
1,"COC(=O)c1nc(-c2cc3c(cc2Cl)OC(F)(F)O3)ccc1Cl [F124, Methyl 3-chloro-6-(6-chloro-2,2-difluorobenzo[d] [1,3]dioxol-5-yl)picolinate]",85 to 94%

# Same assay, conditions: post-emergence, 336 h, ECHCG: barnyardgrass (Echinochloa crus-galli), 140 g ai/ha, 14 days after application, read-out: Visual Growth Reduction (%) 14 Days After Application, ECHCG
row,Structure (SMILES),pest or weed control at 140 g/ha
1,"COC(=O)c1nc(-c2cc3nonc3cc2Cl)ccc1Cl [F261, Methyl 3-chloro-6-(6-chlorobenzo[c][1,2,5]oxadiazol-5-yl)picolinate]",0 to 29%
2,"COC(=O)c1nc(-c2cc3c(cc2Cl)OC(F)(F)O3)ccc1Cl [F124, Methyl 3-chloro-6-(6-chloro-2,2-difluorobenzo[d] [1,3]dioxol-5-yl)picolinate]",75 to 84%

# Same assay, conditions: post-emergence, 336 h, IPOHE: ivy-leaf morning glory (Ipomoea hederacea), 140 g ai/ha, 14 days after application, read-out: Visual Growth Reduction (%) 14 Days After Application, IPOHE
row,Structure (SMILES),pest or weed control at 140 g/ha
1,"COC(=O)c1nc(-c2cc3nonc3cc2Cl)ccc1Cl [F261, Methyl 3-chloro-6-(6-chlorobenzo[c][1,2,5]oxadiazol-5-yl)picolinate]",75 to 84%
2,"COC(=O)c1nc(-c2cc3c(cc2Cl)OC(F)(F)O3)ccc1Cl [F124, Methyl 3-chloro-6-(6-chloro-2,2-difluorobenzo[d] [1,3]dioxol-5-yl)picolinate]",95 to 100%

# Same assay, conditions: post-emergence, 336 h, KCHSC: kochia (Bassia scoparia), 140 g ai/ha, 14 days after application, read-out: Visual Growth Reduction (%) 14 Days After Application, KCHSC
row,Structure (SMILES),pest or weed control at 140 g/ha
1,"COC(=O)c1nc(-c2cc3nonc3cc2Cl)ccc1Cl [F261, Methyl 3-chloro-6-(6-chlorobenzo[c][1,2,5]oxadiazol-5-yl)picolinate]",0 to 29%
2,"COC(=O)c1nc(-c2cc3c(cc2Cl)OC(F)(F)O3)ccc1Cl [F124, Methyl 3-chloro-6-(6-chloro-2,2-difluorobenzo[d] [1,3]dioxol-5-yl)picolinate]",45 to 59%

# Same assay, conditions: post-emergence, 336 h, ORYSA: rice (Oryza sativa), 140 g ai/ha, 14 days after application, read-out: Visual Growth Reduction (%) 14 Days After Application, ORYSA
row,Structure (SMILES),pest or weed control at 140 g/ha
1,"COC(=O)c1nc(-c2cc3nonc3cc2Cl)ccc1Cl [F261, Methyl 3-chloro-6-(6-chlorobenzo[c][1,2,5]oxadiazol-5-yl)picolinate]",0 to 29%
2,"COC(=O)c1nc(-c2cc3c(cc2Cl)OC(F)(F)O3)ccc1Cl [F124, Methyl 3-chloro-6-(6-chloro-2,2-difluorobenzo[d] [1,3]dioxol-5-yl)picolinate]",0 to 29%

# Same assay, conditions: post-emergence, 336 h, SETFA: giant foxtail (Setaria faberi), 140 g ai/ha, 14 days after application, read-out: Visual Growth Reduction (%) 14 Days After Application, SETFA
row,Structure (SMILES),pest or weed control at 140 g/ha
1,"COC(=O)c1nc(-c2cc3nonc3cc2Cl)ccc1Cl [F261, Methyl 3-chloro-6-(6-chlorobenzo[c][1,2,5]oxadiazol-5-yl)picolinate]",0 to 29%
2,"COC(=O)c1nc(-c2cc3c(cc2Cl)OC(F)(F)O3)ccc1Cl [F124, Methyl 3-chloro-6-(6-chloro-2,2-difluorobenzo[d] [1,3]dioxol-5-yl)picolinate]",30 to 44%

# Same assay, conditions: post-emergence, 336 h, SORVU: grain sorghum (Sorghum vulgare), 140 g ai/ha, 14 days after application, read-out: Visual Growth Reduction (%) 14 Days After Application, SORVU
row,Structure (SMILES),pest or weed control at 140 g/ha
1,"COC(=O)c1nc(-c2cc3nonc3cc2Cl)ccc1Cl [F261, Methyl 3-chloro-6-(6-chlorobenzo[c][1,2,5]oxadiazol-5-yl)picolinate]",0 to 29%
2,"COC(=O)c1nc(-c2cc3c(cc2Cl)OC(F)(F)O3)ccc1Cl [F124, Methyl 3-chloro-6-(6-chloro-2,2-difluorobenzo[d] [1,3]dioxol-5-yl)picolinate]",75 to 84%

# Same assay, conditions: post-emergence, 336 h, STEME: common chickweed (Stellaria media), 140 g ai/ha, 14 days after application, read-out: Visual Growth Reduction (%) 14 Days After Application, STEME
row,Structure (SMILES),pest or weed control at 140 g/ha
1,"COC(=O)c1nc(-c2cc3nonc3cc2Cl)ccc1Cl [F261, Methyl 3-chloro-6-(6-chlorobenzo[c][1,2,5]oxadiazol-5-yl)picolinate]",0 to 29%
2,"COC(=O)c1nc(-c2cc3c(cc2Cl)OC(F)(F)O3)ccc1Cl [F124, Methyl 3-chloro-6-(6-chloro-2,2-difluorobenzo[d] [1,3]dioxol-5-yl)picolinate]",0 to 29%

# Same assay, conditions: post-emergence, 336 h, TRZAS: wheat, spring (Triticum aestivum), 140 g ai/ha, 14 days after application, read-out: Visual Growth Reduction (%) 14 Days After Application, TRZAS
row,Structure (SMILES),pest or weed control at 140 g/ha
1,"COC(=O)c1nc(-c2cc3nonc3cc2Cl)ccc1Cl [F261, Methyl 3-chloro-6-(6-chlorobenzo[c][1,2,5]oxadiazol-5-yl)picolinate]",0 to 29%
2,"COC(=O)c1nc(-c2cc3c(cc2Cl)OC(F)(F)O3)ccc1Cl [F124, Methyl 3-chloro-6-(6-chloro-2,2-difluorobenzo[d] [1,3]dioxol-5-yl)picolinate]",60 to 74%

# Same assay, conditions: post-emergence, 336 h, blackgrass (Alopecurus myosuroides), 14 Days After Application, 140 g ai/ha, read-out: Visual Growth Reduction (%) ALOMY
row,Structure (SMILES),pest or weed control at 140 g/ha
1,"COC(=O)c1nc(-c2cc3nonc3cc2Cl)ccc1Cl [F261, Methyl 3-chloro-6-(6-chlorobenzo[c][1,2,5]oxadiazol-5-yl)picolinate]",0 to 29%

# Same assay, conditions: post-emergence, 336 h, canada thistle (Cirsium arvense), 14 Days After Application, 140 g ai/ha, read-out: Visual Growth Reduction (%) CIRAR
row,Structure (SMILES),pest or weed control at 140 g/ha
1,"COC(=O)c1nc(-c2cc3nonc3cc2Cl)ccc1Cl [F261, Methyl 3-chloro-6-(6-chlorobenzo[c][1,2,5]oxadiazol-5-yl)picolinate]",30 to 44%

# Same assay, conditions: post-emergence, 336 h, crabgrass (Digitaria sanguinalis), 14 Days After Application, 140 g ai/ha, read-out: Visual Growth Reduction (%) DIGSA
row,Structure (SMILES),pest or weed control at 140 g/ha
1,"COC(=O)c1nc(-c2cc3nonc3cc2Cl)ccc1Cl [F261, Methyl 3-chloro-6-(6-chlorobenzo[c][1,2,5]oxadiazol-5-yl)picolinate]",60 to 74%

# Same assay, conditions: post-emergence, 336 h, lambsquarters (Chenopodium album), 14 Days After Application, 140 g ai/ha, read-out: Visual Growth Reduction (%) CHEAL
row,Structure (SMILES),pest or weed control at 140 g/ha
1,"COC(=O)c1nc(-c2cc3nonc3cc2Cl)ccc1Cl [F261, Methyl 3-chloro-6-(6-chlorobenzo[c][1,2,5]oxadiazol-5-yl)picolinate]",60 to 74%

# Same assay, conditions: post-emergence, 336 h, redroot pigweed (Amaranthus retroflexus), 14 Days After Application, 140 g ai/ha, read-out: Visual Growth Reduction (%) AMARE
row,Structure (SMILES),pest or weed control at 140 g/ha
1,"COC(=O)c1nc(-c2cc3nonc3cc2Cl)ccc1Cl [F261, Methyl 3-chloro-6-(6-chlorobenzo[c][1,2,5]oxadiazol-5-yl)picolinate]",0 to 29%

# Same assay, conditions: post-emergence, 336 h, wild oat (Avena fatua), 14 Days After Application, 140 g ai/ha, read-out: Visual Growth Reduction (%) AVEFA
row,Structure (SMILES),pest or weed control at 140 g/ha
1,"COC(=O)c1nc(-c2cc3nonc3cc2Cl)ccc1Cl [F261, Methyl 3-chloro-6-(6-chlorobenzo[c][1,2,5]oxadiazol-5-yl)picolinate]",0 to 29%

# Same assay, conditions: post-emergence, 336 h, yellow nutsedge (Cyperus esculentus), 14 Days After Application, 140 g ai/ha, read-out: Visual Growth Reduction (%) CYPES
row,Structure (SMILES),pest or weed control at 140 g/ha
1,"COC(=O)c1nc(-c2cc3nonc3cc2Cl)ccc1Cl [F261, Methyl 3-chloro-6-(6-chlorobenzo[c][1,2,5]oxadiazol-5-yl)picolinate]",0 to 29%
